Measurements reported in patent US7250295B2 (Board of Trustees of Michigan State University, priority 1999, dated 2007).

What was measured:
mAB 6F5 [1] = assay type: binding, mouse; conditions: read-out: 50% inhibitory concentration
[2] = tested on: antibody obtained from C430-BSA-immunized mice; assay: CI-ELISA: antisera of C430-BSA-immunized mice on immobilized DONPEP.2 phage; assay type: binding
Procedure: The strips were washed and blocked as described for the CD-ELISA. Various concentrations of DON (0 to 10,000 ηg/ml in 1% methanol-PBS), 50 μl/well, was added to the wells, and then 50 μl of anti-DON mAB 6F5 (10 μg/ml in 10% milk-PBS) was added to each well. The wells were incubated at 37° C. for 1 hour. Then the wells were washed six times with PBS-T, and the amounts of bound anti-DON mAB 6F5 were determined by incubation with goat anti-mouse IgG-HRP conjugate (diluted 1:2,000 with 10% milk-PBS) at 37° C. for 1 hour. The amounts of bound enzyme were determined as described above.
Synthetic peptide C430 was conjugated to BSA with a m-maleimidobenzoyl-N-hydroxysulfosuccinimide ester (sulfo-MBS) cross-linker. The C430-BSA conjugate, at a molar ratio of peptide C430 to the carrier protein BSA of about 29:1, was used to inject 7-week-old BALB/c female mice intraperitoneally or 6-month-old New Zealand white rabbits subcutaneously. The initial injections used for the mice contained 100 to 200 μg of C430-BSA conjugate in 200 μl of saline-Freund's complete adjuvant (1:1). These injections were followed at 3-week intervals by booster injections consisting of 100 to 200 μg of conjugate in 200 μl of saline-Freund's incomplete adjuvant (1:1). […]

[3] = tested on: protein synthesis in vitro with rabbit reticulocyte lysate; assay type: biochemical
mAB 6F5 [4] = assay: Binding of nivalenol to mAB 6F5; set-up: species or system mouse

| Compound | IC50 (mAB 6F5 [1]) [nM] | inhibition of antisera binding to immobilized phage-displayed peptide ([2]; free competitor in solution) | effect on new protein synthesis [3] | cell death (mouse bone marrow cells; B6C3F1, mouse) | affinity for mAB 6F5 relative to DON (mAB 6F5 [4]) | IC50 ([2]; antiserum after the fourth injection of C430-BSA, FIG. 6, read-out: concentration giving 50% inhibition of antiserum binding to immobilized phage-displayed peptide) [nM] | new protein synthesis with DON mixed with equimolar C430 [3] | effect on cell viability when combined with DON (mouse bone marrow cells) | effect on viability of bone marrow cells (mouse bone marrow cells) |
| --- | --- | --- | --- | --- | --- | --- | --- | --- | --- |
| CC1=C[C@H]2O[C@@H]3[C@H](O)C[C@](C)([C@@]2(CO)[C@H](O)C1=O)[C@]31CO1 [DON, 12,13-epoxy-3,7,15-trichothec-9-en-8-one, reference compound] | 3400 | not inhibited by free DON | significantly inhibited new protein synthesis | 40-60% |  |  |  |  |  |
| CC1=C[C@H]2O[C@@H]3[C@H](O)[C@@H](O)[C@](C)([C@@]2(CO)[C@H](O)C1=O)[C@]31CO1 [Nivalenol, nivalenol] |  |  |  |  | slightly less affinity than DON |  |  |  |  |
| H-SWGPFPFGGGSC-OH [C430, NH2-SWGPFPFGGGSC-COOH] |  |  | had no such inhibitory effect |  |  | 390 | new protein synthesis was not inhibited | did not significantly increase or decrease the cell viability caused by DON | did not have any adverse effect on the viability |
